Reference: patent US7329726B2, “Physiologically active peptides” (Seiren Kabushiki Kaisha, priority 2004, dated 2008)
Read-outs that look alike come from different tables or passages of the source. Peptide text beside a SMILES is read from it.

Legend:
insect cell Sf9 [1] = assay type: cell-based; conditions: Sf9 cells; for Survival rate (%) Average ± Standard deviation (n = 4): Sf900IISFM medium without FCS, 5 days at 27.5° C.
Procedure: Cell death-preventing activity of the peptide according to the present invention was evaluated using an insect cell Sf9 (Invitrogen).
The Sf9 cell is usually subcultured using an Sf900IISFM medium (Invistrogen) containing 10% FCS (fetal calf serum) (Sigma) at a temperature of 27.5° C. It is known that marked cell death occurs when the Sf9 cells thus cultured are abruptly transferred into a medium without FCS and thus exposed to drastic serum-deprived conditions. In this test, cells to be tested were exposed under such drastic serum-deprived conditions and their survival rate was measured to evaluate cell death-preventing effect of the peptide according to the present invention.
First, Sf9 cells subcultured using a medium supplemented with 10% FCS were centrifuged at 1000 rpm at 4° C. for 5 minutes. Next, the supernatant was removed and the precipitated cells were suspended in an Sf900IISFM medium without FCS. The suspension was recentrifuged at 1000 rpm at 4° C. for 5 minutes to wash the cells.
Next, in order to expose the cells under drastic serum-deprived conditions, the washed cells were resuspended in an Sf900IISFM medium without FCS and a cell suspension having a cell density of 5×10^5 cells/ml was prepared.
On the other hand, peptide A (the present invention) was dissolved in an Sf900IISFM medium without FCS and peptide solutions were prepared at peptide concentrations of 0.2 mg/ml, 0.6 mg/ml, and 2.0 mg/ml. The peptide solutions thus prepared were sterilized by filtration.
Next, 50 μl of the abovementioned cell suspension and 50 μl each of the abovementioned peptide solutions were dispensed on a 96-well cell culture plate at a final cell density of 2.5×10^5 cells/ml and final peptide concentrations of 0.1 mg/ml, 0.3 mg/ml, and 1.0 mg/ml, respectively. This culture plate was incubated at 27.5° C. for 5 days.
After 5 days of incubation, cells were stained with Trypan blue and the number of dead cells and the number of viable cells were counted to obtain the survival rate. Here the survival rate means the ratio of the viable cell count to the total cell count upon cell counting.
As a comparative example, an experiment was carried out in the same manner as described above for peptide A, except that peptide B was used in place of peptide A (the present invention), to obtain the survival rate.
As another comparative example, an experiment was carried out in the same manner as described above for peptide A, except that a bovine serum albumin (Sigma) solution was used in place of the abovementioned peptide solutions, to obtain the survival rate.

insect cell Sf9 [2] = assay: Evaluation Test 2: Cell growth-promoting activity (MTT assay under serum-deprived conditions); assay type: cell-based; conditions: Sf9 cells; for OD 595 nm Average ± Standard deviation (n = 4): medium without FCS, 9 days at 27.5° C.
Procedure: Cell growth-promoting activity of the peptide according to the present invention was evaluated using an insect cell Sf9 (Invitrogen).
It is known that marked cell death as shown in Evaluation Test 1 and thereafter a decrease in cell growth occur when the Sf9 cells are exposed to drastic serum-deprived conditions. In this test, the cells to be tested were exposed under such drastic serum-deprived conditions and their growth ability was measured to evaluate cell growth-promoting effect of the peptide according to the present invention.
A cell suspension was prepared in the same manner as in Evaluation test 1, and peptide solutions were prepared using peptide A (the present invention) as in Evaluation test 1. Next, 50 μl of this cell suspension and 50 μl each of the peptide solutions were dispensed on a 96-well cell culture plate in the same manner as in Evaluation test 1, and this culture plate was incubated at 27.5° C. for 9 days.
After 9 days of incubation, cell growth-promoting effect was evaluated by the MTT assay.
Specifically, to each well of the 96-well plate incubated for 9 days was added 5 μl of 5 mg/ml 3-(4,5-dimethyl-2-thiazolyl)-2,5-diphenyl tetrazolium bromide (MTT) in phosphate-buffered physiological saline, and the plate was incubated at 27.5° C. for further 5 hours. During this culture process, MTT is transformed into insoluble formazan in viable cells. After 5 hours of incubation, cell culture supernatant was completely removed and then 200 μl each of a 10 mM […] solution with 10% SDS was added to each well to completely dissolve the cells and formazan in the cells. Next, the absorption coefficient at 595 nm was measured for each well using a microplate reader.
As a comparative example, an experiment was carried out in the same manner as the one with the abovementioned peptide A, except that peptide B was used in place of peptide A (the present invention), and then the absorption coefficient at 595 nm was measured for each well.
As another comparative example, an experiment was carried out in the same manner as described above for peptide A, except that a bovine serum albumin (Sigma) solution was used in place of the abovementioned peptide solutions, and then the absorption coefficient at 595 nm was measured for each well.
Here the value of the absorption coefficient in the NTT assay increases with an increase in viable cell density.

[3] = sample concentration 1.0 mg/ml, listed as peptide A

| Molecule | Survival rate (%) Average ± Standard deviation (n = 4) (insect cell Sf9 [1]; sample concentration 0.1 mg/ml) | Survival rate (%) Average ± Standard deviation (n = 4) (insect cell Sf9 [1]; sample concentration 0.3 mg/ml) | Survival rate (%) Average ± Standard deviation (n = 4) (insect cell Sf9 [1]; sample concentration 1.0 mg/ml) | Survival rate (%) Average ± Standard deviation (n = 4) (insect cell Sf9 [1]; [3]) | survival rate compared with peptide B (comparative example) (insect cell Sf9 [1]; serum-deprived, 5 days) | OD 595 nm Average ± Standard deviation (n = 4) (insect cell Sf9 [2]; sample concentration 0.1 mg/ml) | OD 595 nm Average ± Standard deviation (n = 4) (insect cell Sf9 [2]; sample concentration 0.3 mg/ml) | OD 595 nm Average ± Standard deviation (n = 4) (insect cell Sf9 [2]; sample concentration 1.0 mg/ml) | OD 595 nm Average ± Standard deviation (n = 4) (insect cell Sf9 [2]; [3]) | cell growth-promoting activity compared with peptide B (comparative example) (insect cell Sf9 [2]; serum-deprived, 9 days) |
| --- | --- | --- | --- | --- | --- | --- | --- | --- | --- | --- |
| C[C@@H](O)[C@H](NC(=O)[C@H](CO)NC(=O)[C@H](CO)NC(=O)CNC(=O)CNC(=O)[C@@H](N)CO)C(=O)N[C@@H](Cc1ccc(O)cc1)C(=O)NCC(=O)N[C@@H](Cc1ccc(O)cc1)C(=O)N[C@@H](CO)C(=O)O [Peptide A] (H-SGGSSTYGYS-OH; N-terminus assumed) | 28.5 ± 3.4% | 47.3 ± 2.9% | 58.0 ± 3.2% | about 60% | higher than that with peptide B | 0.48 ± 0.01 | 0.80 ± 0.02 | 0.92 ± 0.02 | about 0.9 | higher than that with peptide B |
| bovine serum albumin [reference compound] | – | 62.5 ± 3.0% | – | – | – | – | 0.90 ± 0.03 | – | – | – |
| Peptide B: peptide having the amino acid sequence of SEQ ID NO: 3, 2 repeats of the 38 amino acid sequence contained in natural sericin (WO 02/086133) (protein, Peptide derived from sericin) SSTGSSSNTDSNSNSAGSSTSGGSSTYGYSSNSRDGSVSSTGSSSNTDSNSNSAGSSTSGGSSTYGYSSNSRDGSV | – | 46.1 ± 2.2% | – | – | – | – | 0.72 ± 0.03 | – | – | – |
